Experiment: refractive index (other wavelength) (dimensionless)
Conditions: 100 kPa, Liquid, Standard Abbe refractometry

COC(=O)c1ccc(C(C)(C)C)cc1 [methyl 4-tert-butylbenzoate]
refractive index
Conditions | 293.15 K | 298.15 K | 303.15 K | 308.15 K | 313.15 K | 318.15 K | 323.15 K | 328.15 K | 333.15 K | 338.15 K
Wavelength=404.7 nm | 1.53993 | 1.53745 | 1.5352 | 1.53292 | 1.5307 | 1.52841 | 1.52614 | 1.52383 | 1.52158 | 1.51926
Wavelength=435.8 nm | 1.53137 | 1.52893 | 1.52672 | 1.52448 | 1.52231 | 1.52004 | 1.5178 | 1.51554 | 1.51332 | 1.51104
Wavelength=486.1 nm | 1.52182 | 1.51944 | 1.51725 | 1.51505 | 1.5129 | 1.5107 | 1.50849 | 1.50627 | 1.50407 | 1.50186
Wavelength=546.1 nm | 1.51423 | 1.51188 | 1.50975 | 1.50756 | 1.50548 | 1.50329 | 1.50112 | 1.49894 | 1.49678 | 1.4946
Wavelength=587.6 nm | 1.51053 | 1.5082 | 1.50608 | 1.50382 | 1.50185 | 1.4997 | 1.49755 | 1.49537 | 1.49326 | 1.49108
Wavelength=589.3 nm | 1.51039 | 1.50807 | 1.50595 | 1.50368 | 1.50172 | 1.49957 | 1.49742 | 1.49525 | 1.49314 | –
Wavelength=632.8 nm | 1.50735 | 1.50504 | 1.50293 | 1.50107 | 1.49872 | 1.49659 | 1.49445 | 1.49225 | 1.4902 | –
Wavelength=644 nm | 1.50663 | 1.50433 | 1.50222 | 1.50004 | 1.49802 | 1.49589 | 1.49375 | 1.49161 | 1.4895 | –
Wavelength=706.5 nm | 1.50334 | 1.50105 | 1.49897 | 1.49686 | 1.49479 | 1.49268 | 1.49056 | 1.48842 | 1.48634 | –
